Source: US6177572A, “Solid and liquid-phase synthesis of benzoxazoles and benzothiazoles and their use” (Sepracor, Inc., priority 1997, dated 2001)

Tests used:
Type in all cases: cell-based
E. Coli = assay: Modified Kirby-Bauer Assay Against E. Coli; conditions: Escherichia coli, control, 10 mg/ml, read-out: zone size of inhibited microbial growth (diameter), control
Experimental: (§1) Modified Kirby-Bauer Susceptibility Testing (see, e.g., Finegold et al. "Diagnostic Microbiology," 6th Ed., C. V. Mosby Co., St. Louis, (1982), pp. 542-543: Microorganisms are grown on a solid medium in order to ensure a pure homogeneous culture. This requires an 18-24 hour grow out. Once purity is determined, the microorganism is sub-cultured by picking off one to three colonies from the solid medium using a sterile loop, and placing the colonies onto an appropriate liquid medium (e.g., Brain Heart Infusion for bacteria and Sabouraud's Dextrose for yeast or fungi). The microorganisms are then allowed to grow for 4-6 hours at the appropriate atmospheric and temperature conditions. After the 4-6 hour grow out, the microorganisms are ready for testing.
(§2) The MacFarland standard is prepared by mixing Barium Chloride with sulfuric acid in the appropriate proportions, as is known in the art (see, e.g. Finegold et al., supra). Once the cultures have been standardized, sterile cotton swabs are used to apply the microorganisms to agar plates for testing. The plates are swabbed in three different directions, rotating the plates 60 each time. After the microorganisms have been applied to the plate, 10-12 paper disks (1/4") in diameter are spaced evenly around the plate. […] The zones are measured in millimeters and recorded. […]

Staphylococcus aureus = assay: Modified Kirby-Bauer Assay Against Staphylococcus aureus; conditions: read-out: zone size of inhibited microbial growth (diameter), control
Experimental: as §1, §2

Saccharomyces = assay: Modified Kirby-Bauer Assay Against Saccharomyces; conditions: 10 mg/ml
Experimental: as §1, §2

Candida = assay: Modified Kirby-Bauer Assay Against Candida; conditions: 10 mg/ml
Experimental: as §1, §2

| Compound | zone of inhibition at 10000 µg/mL (E. Coli) [mm] | zone of inhibition at 10000 µg/mL (Staphylococcus aureus) [mm] | zone size of inhibited microbial growth (diameter), control (Saccharomyces) [mm] | zone size of inhibited microbial growth (diameter), control (Candida) [mm] |
| --- | --- | --- | --- | --- |
| CN(C)C1C(O)=C(C(N)=O)C(=O)C2(O)C(O)=C3C(=O)c4c(O)cccc4C(C)(O)C3CC12 (stereo not drawn) [Tetracylcine] | 22 | 25 |  |  |
| CCC(C)n1ncn(-c2ccc(N3CCN(c4ccc(OCC5COC(Cn6cncn6)(c6ccc(Cl)cc6Cl)O5)cc4)CC3)cc2)c1=O (single isomer, unassigned; (-)) [(-) cis itraconazole] |  |  | 15 | 15 |
| CCC(C)n1ncn(-c2ccc(N3CCN(c4ccc(OCC5COC(Cn6cncn6)(c6ccc(Cl)cc6Cl)O5)cc4)CC3)cc2)c1=O (single isomer, unassigned; (+)) [(+) cis-itraconazole] |  |  | 12 | 12 |
